We go through 1 compound from US11555031B2, “Compounds and methods for regulating insulin secretion” (The Broad Institute, Inc., priority 2017, dated 2023).

“Also recorded” adds a separate entry of the source.

One series has as its system IP-1. In words: IP-1 secondary messenger level in treated cells. Type of series: cell-based. Conditions: treated cells (data not shown). An excerpt: (§1) Further investigation into Compound 8 included measuring levels of the secondary messengers cAMP (FIG. 9) and IP-1 (not shown) in treated cells, as compounds that increase these secondary messengers are known to augment insulin secretion, though often in ways that are not beta-cell specific.

A further series has as its system dissociated human islets. In words: Insulin secretion from dissociated human islets, insulin ELISA. Type of series: cell-based. The method, then: Forskolin is included as a positive control.
Human islets were obtained through the Integrated Islet Distribution Program. Islets were maintained and dissociated in 96-well format as described (Walpita et al., J Biomol Screen 17: 509-518 2012). To test compounds for their effects on insulin secretion, the dissociated islets were washed gently in KRB and preincubated for 1 hr at 37° C. in KRB with 2.8 mM glucose. The cells were then washed twice with zero-glucose KRB and placed in 100 μl of fresh KRB with varied glucose concentrations plus compounds. After a 1 hr incubation at 37° C., the supernatant was removed, and insulin concentration was measured by ELISA (Mercodia) according to the manufacturer's instructions.
A general note: ELISA stands for enzyme-linked immunosorbent assay.

For a further series, the target named is T1, pancreatic glucokinase (Homo sapiens, UniProt P35557).
T1 sequence (P35557 1-465): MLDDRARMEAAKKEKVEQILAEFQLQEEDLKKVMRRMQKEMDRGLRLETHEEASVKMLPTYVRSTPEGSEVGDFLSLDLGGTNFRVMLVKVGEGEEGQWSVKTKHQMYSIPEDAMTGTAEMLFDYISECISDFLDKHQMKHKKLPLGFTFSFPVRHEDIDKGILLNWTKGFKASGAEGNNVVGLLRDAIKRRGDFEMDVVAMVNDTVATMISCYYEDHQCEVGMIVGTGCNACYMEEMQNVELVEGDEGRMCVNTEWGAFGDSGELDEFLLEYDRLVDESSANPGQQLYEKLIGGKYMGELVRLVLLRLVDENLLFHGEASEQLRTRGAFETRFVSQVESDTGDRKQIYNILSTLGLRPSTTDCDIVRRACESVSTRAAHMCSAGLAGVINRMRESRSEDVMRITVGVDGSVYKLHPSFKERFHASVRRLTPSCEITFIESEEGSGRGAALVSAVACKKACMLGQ
In words: Glucokinase activation assay (ATP level). The conditions noted are these: ATP level readout; GK-A positive control. Type of series: biochemical. An excerpt: FIG. 11 depicts the lack of effect of Compound 8 on glucokinase activity in cells treated with the indicated compounds. The assay is based on the measurement of ATP level. In presence of GK we observe a reduction of level of ATP with respect to the negative control (DMSO).
To rule out the possibility of Compound 8 acting as a glucokinase agonist, another well-established mechanism of augmenting insulin secretion, the compound was subjected to a glucokinase activation assay (FIG. 11).

Series [1] has as its system Mouse MING insulinoma cells. In words: Calcium influx assay (Fluo-4, FLIPR Tetra). The series is classed as cell-based. As to the method:
Mouse MING insulinoma cells were cultured in DMEM medium supplemented with 10% FBS, 100 U/mL penicillin, 100 μg/mL streptomycin, and 55 μM β-mercaptoethanol. Two days prior to the experiment, cells were seeded in 384-well clear-bottom microplates at 17,500 cells/well. For calcium imaging, microplates were washed three times with Hanks' Balanced Salt Solution (HBSS, containing Ca^2+/Mg^2+) using the CyBio Well vario plate washer. Cells were loaded with 2 μM of the calcium indicator Fluo-4 for 1 hour at 37° C. in Krebs-Ringer buffer (KRB) with 3 g/L glucose. After dye loading, the cells were washed again with HBSS and incubated in KRB with 0.5 g/L glucose for 30 minutes at 37° C. (glucose starvation conditions). After glucose starvation, microplates were transferred to FLIPR Tetra, where an automated 384-well dispensing unit added glucose (glucose stimulation conditions) together with Compound 8. Positive control measurements (“+CNT”) were performed in wells with ionomycin to prompt calcium influx without the presence of glucose. Negative control measurements (“−CNT”) were also performed in wells with Compound 8 present in and without glucose. All wells were read simultaneously at 1 Hz intervals. FIG. 20 illustrates the fold increase of measured calcium over baseline measurements performed in the absence of glucose. […] Without wishing to be bound by theory, it is believed that insulin secretagogues acts between KATP channels stimulated by glucose, and the calcium channels that induce insulin secretion.

A further series in a line: Microsome t1/2, human. The conditions noted are these: Human microsomes. The series is classed as in vitro ADME. As to the method: (§2) The pharmacokinetic activity profile of Compound 8 was assessed by various standard in vitro measurements. Measurements were performed on human, mouse (CD-1) and rat (SD) microsomes to determine the t1/2, the plasma protein binding (“PPB”) and the plasma stability (“PS”).

Another series can be described thus: Plasma stability, mouse. Type of series: in vitro ADME. The method, then: (§3) Measurements were performed on human, mouse (CD-1) and rat (SD) microsomes to determine the t1/2, the plasma protein binding (“PPB”) and the plasma stability (“PS”).
For the next series, the system named is cAMP. In words: cAMP HTRF assay (Cisbio). Type of series: cell-based. Conditions: HTRF competition assay; increase in cAMP seen as decrease in signal.
Source text: FIG. 9 depicts the quantification of cAMP activity in cells treated with the indicated compound in a HTRF assay from Cisbio.
as §1
CellTiter-Glo (Promega) and the cAMP Dynamic-2 HTRF assay (Cisbio) were used according to the manufacturers' instructions. Luciferase secretion and CellTiter-Glo experiments were performed using a 1 hr incubation with compound, whereas the cAMP assay was performed using a 30 min incubation. Secretion experiments were run in KRB buffer; all other experiments were run in standard INS-1E medium.
(In general: TR-FRET usually uses a lanthanide donor and a delayed reading to cut background.)

The nature of the next series: Plasma stability, rat. The series is classed as in vitro ADME. As to the method:
as §3

The nature of another series: Microsome t1/2, mouse. Type of series: in vitro ADME. The conditions noted are these: Mouse (CD-1) microsomes. The method, then:
as §2

`Cc1cccc(NC(=O)c2ccc(OCc3c(C)noc3C)cc2)c1C` [Compound 8]: in the series on IP-1, the IP-1 level entry is “did not increase levels”. In addition, the “insulin secretion, human islets from nondiabetic donors” value with dissociated human islets (normal donors) was “significant increase in glucose-dependent insulin secretion; also recorded: dose-dependent effect”. The “insulin secretion, human islets from type 2 diabetic donors” value with dissociated human islets (type 2 diabetes donors) is listed as “significant increase in glucose-dependent insulin secretion; also recorded: increases insulin secretion”. In addition, the glucokinase activation result on pancreatic glucokinase was “did not show any significant activation effect; also recorded: no change in assay signal”. Besides, the “calcium influx in β-cells in the presence of glucose” value in [1] (glucose stimulation conditions (16.7 mM glucose), 1 μM, 10 μM) was “does promote calcium influx”. For the same compound, the “dose dependence of calcium influx in beta cells” value in [1] (only in the presence of glucose) is on record as “dose dependent response”. In addition, the “calcium influx in β-cells in the absence of glucose” value in series [1] (without glucose) is listed as “does not invoke a calcium influx”. The half-life in “Microsome t1/2, human” was found to be 19.3 h; in the series “Microsome t1/2, mouse” it was 4.6 h. The PS in “Plasma stability, mouse” worked out at 96.0 % remaining; in “Plasma stability, rat”, 97.5 % remaining. In addition, in the series with cAMP, the cAMP level result is reported as “did not increase levels”.

In general, half-life refers to how long it takes for the measured level to halve. A higher half-life goes with slow decline.
